Assay results published in patent publication US20040138272A1, “1,4-Substituted cyclohexane derivatives” (priority 2002, published 2004).
“Also recorded” adds a separate entry of the source. Where two headings read alike, the source gives them in different places.

Columns and labels:
[1] = target: glycogen synthatase kinase 3 beta (GSKB) (Homo sapiens, UniProt P49841); assay: GSK B kinase activity of compounds (FIG. 10); format: biochemical; settings: 10 uM
PRK2 = PRK2 (Homo sapiens, UniProt Q16513); settings: cited from earlier work
MSK1 = MSK1 (Homo sapiens, UniProt O75582); settings: cited from earlier work
[2] = cited from earlier work
PHK = settings: cited from earlier work
[3] = rat, in vivo, po, 30 mg/kg; cited from earlier work
MAPKAP-K1b = MAPKAP-K1b (Oryctolagus cuniculus, UniProt A0A5F9C4L9); settings: cited from earlier work
[4] = tested on: PC12 cells on MAG substrates; assay: Bioassay of PC12 neurite growth on growth inhibitory myelin-associated glycoprotein (MAG) substrates; format: cell-based; settings: Dihydrochloride; for neurite outgrowth on inhibitory MAG substrates (FIG. 4): PC12 cells, 0.31, 3.1 or 31 uM
Protocol: PC-12 cells (ATCC CRL-1721) typically extend neurites in response to NGF, but when plated on inhibitory substrates, this outgrowth is inhibited and the cells remain round. We tested the ability of the new compound to grow neurites when plated on inhibitory substrates.
We used PC12 cells obtained from the American Type Culture Collection. PC12 cells were grown in Dulbecco's modified eagle's medium (DMEM) with 10% horse serum and 5% fetal bovine serum. To test compounds for the ability to overcome growth inhibition, PC12 cells were collected by detaching with trypsin-EDTA (0.05%), then resuspended in DMEM, 1% FBS, and 50 ng/ml nerve growth factor before plating on MAG substrates. MAG used for substrates was purified from myelin after extraction in 1% octylglucoside and separation by ion exchange chromatography (McKerracher et al. 1994, Neuron 13:805-811). Test substrates were prepared as uniform substrates in 96-well plates by drying overnight in the laminar flow hood (Nalge Nunc, Naperville, Ill.). Plates were precoated with polylysine (100 μg/ml) for 3 hours at 37° C., then washed and dried approx. 1 hour. MAG was prepared as a substrate by drying down 8 μg of protein overnight. After plating on the MAG substrate, the cells were grown at 37 C. for two days in the presence or absence of test compound (BA1003, BA1016, BA1017) to allow neurite growth. Polylysine substrates were used as a positive control. Quantitative analysis of neurite outgrowth was with the aid of Northern Eclipse software (Empix Imaging, Mississauga, Ontario). Data analysis and statistics were with Microsoft Excel.
Referring to FIG. 4 there is shown a graph illustrative of experiments performed in triplicate testing the ability of BA-1003, BA-1016 and BA-1017 to overcome growth inhibition by MAG. PC12 cells were plated on MAG substrates alone (MAG) or MAG substrates in the presence of 0.31 uM, 3.1 um or 31 um concentrations of the test compound. The numbers of neurons that grew neurites were scored, and are shown as the percentage of neurite growth.

[5] = tested on: NG108-15 neuronal cell line; assay: Rapid bioassay of neurite growth in NG108-15 cells; format: cell-based; settings: NG108 cells, 3.1 to 31 μM
Protocol: When neurons are placed on inhibitory substrates in tissue culture, the neurons remain rounded. When an effective Rho kinase inhibitor is added to the neurons, the neurons are able to grow neurites on myelin substrates. The time that it takes for neurons to grow neurites after the addition of a Rho kinase inhibitor is about the same as the time that it takes for neurons to grow neurites if the neurons had been plated on growth permissive substrate such as laminin or polylysine, which time is typically 1 to 2 days in cell culture. An assessment of resulting neurite growth can be scored by visual means. If needed, a quantitative assessment of neurite growth can be performed. This involves measuring after a time such as 1 to 2 days the neurite length a) in control cultures where neurons are plated on myelin substrates and left untreated with Rho kinase inhibitor for such time, b) in positive control cultures, wherein for example neurons are plated on polylysine but left untreated with Rho kinase inhibitor for such time, and c) in cultures analogous to a) and b) that are treated with different concentrations of a Rho kinase inhibitor for such time. […] In this assay, NG108 cells are plated on plastic in the presence or absence of the test substance (a Rho kinase inhibitor). […] The relative efficacy can be assessed by fixing the cultures 5 hours after plating, and counting the number of cells that have grown neurites.
A rapid bioassay is used to determine the effect of a test compounds on the stimulation of neurite growth in vitro. A neuronal cell line, NG108-15 (ATCC HB-12317), is maintained in culture in Dulbecco's minimal essential medium (DMEM) supplemented with 10% fetal bovine serum, Penicillin/Streptomycin and HAT supplement (Gibco/BRL). For the bioassay, the cells are collected by trypsinisation and ressuspended in DMEM supplemented with 5% FBS, Penicillin/Streptomycin, HAT supplement and 0.25 mg/ml cAMP, adjusted to 1.0×10^4 cells/ml. The cells are plated into wells of a 96 well plate at 100 μls (1000 cells)/well. Cells are incubated 4 h at 37° C. and 5% CO2 in presence of small molecules or cethrin at a concentration of 1000 cells per well of a 96-wells plate in a final volume of 100 ul.
After incubation, cells are fixed by adding […] 16% PFA and 5.4 μls 2.5% glutaraldehyde to the media in each well. The wells are stained with cresyl violet 0.05% , 100 μls/well for 15 min. Cells with neurites (length≧one cell body) are counted using an inverted light microscope. The % neurite outgrowth is determined by calculating the number of cells with neurites over the total number of counted cells.

ROCK II = target: T1, ROCK II (Rattus norvegicus, UniProt Q62868); assay: ROCK II kinase assay with [γ-32P] ATP and myelin basic protein substrate (FIG. 3); format: biochemical; settings: 100 μM ATP, 30 min at 30° C.
T1 construct: purchased Upstate (Lake Placid, N.Y.)
From the text: The ability of compounds to inhibit ROK activity may be tested in a cell-free assay system using recombinant ROK, radiaoactive ATP, and Myelin basic Protein (MBP). MBP is a highly phosphorylated protein, is inexpensive to buy in purified form, is phosphorylated by ROK, and is used as the assay substrate for phosphorylation. Recombinant ROK has been prepared from a number of sources. Overexpression in mammalian cells provides a convenient, easily renewed source of ROK activity. Measurement of Rho-associated kinase (ROK) activity is important to determine the potency of novel inhibitors. MBP is a substrate for ROK and a number of other protein kinases, making it useful both to quantitate ROK activity and to indicate the potency and specificity of novel inhibitors for ROK. […]
ROCK II was assayed in 20 mM MOPS, pH 7.2, 25 mM β-glycerophosphate, 5 mM EGTA, 1 mM sodium orthovanadate, 1 mM dithiothreitol with dephosphorylated myelin basic protein (MBP, 0.2 mg/ml) as substrate with or without BA-1016 or BA-1017. […] Assays were initiated by adding Mg^2+/ATP and terminated by spotting 40 μl of each reaction onto phosphocellulose paper (P81 paper, Whatman), followed by washes in 0.75% phosphoric acid to remove ATP and then dried, put in scintillation cocktail and counted to measure ^32P incorporation. Radioactivity is measured using a scintillation counter. […]

Chain of glycogen synthatase kinase 3 beta (GSKB) (P49841 whole entry): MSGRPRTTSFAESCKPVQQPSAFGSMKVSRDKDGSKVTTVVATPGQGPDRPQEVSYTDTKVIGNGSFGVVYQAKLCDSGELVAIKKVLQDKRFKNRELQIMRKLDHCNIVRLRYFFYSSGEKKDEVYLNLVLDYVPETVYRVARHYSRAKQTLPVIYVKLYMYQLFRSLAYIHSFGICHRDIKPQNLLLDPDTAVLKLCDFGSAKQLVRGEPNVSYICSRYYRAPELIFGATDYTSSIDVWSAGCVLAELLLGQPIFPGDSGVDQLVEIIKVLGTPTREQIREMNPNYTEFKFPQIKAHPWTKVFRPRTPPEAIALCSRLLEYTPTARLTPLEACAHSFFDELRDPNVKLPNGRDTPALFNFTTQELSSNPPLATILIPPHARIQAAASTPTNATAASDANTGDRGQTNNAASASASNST
T1 sequence (Q62868 11-550 limits assumed): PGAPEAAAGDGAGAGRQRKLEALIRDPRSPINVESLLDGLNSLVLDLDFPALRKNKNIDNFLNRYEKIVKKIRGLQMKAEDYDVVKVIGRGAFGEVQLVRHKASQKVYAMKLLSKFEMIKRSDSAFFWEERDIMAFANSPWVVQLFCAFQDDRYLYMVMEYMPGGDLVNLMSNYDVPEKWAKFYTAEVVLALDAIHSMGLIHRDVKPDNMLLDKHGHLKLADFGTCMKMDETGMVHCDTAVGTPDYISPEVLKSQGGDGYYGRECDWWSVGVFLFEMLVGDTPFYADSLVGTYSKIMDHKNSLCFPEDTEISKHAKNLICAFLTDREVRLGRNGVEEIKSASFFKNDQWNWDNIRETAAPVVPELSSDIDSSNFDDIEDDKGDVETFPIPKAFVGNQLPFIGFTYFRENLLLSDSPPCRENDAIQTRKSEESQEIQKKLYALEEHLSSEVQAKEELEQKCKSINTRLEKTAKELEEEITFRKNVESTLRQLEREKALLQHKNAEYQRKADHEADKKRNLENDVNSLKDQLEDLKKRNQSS
Chain of MSK1 (O75582 whole entry, species assumed): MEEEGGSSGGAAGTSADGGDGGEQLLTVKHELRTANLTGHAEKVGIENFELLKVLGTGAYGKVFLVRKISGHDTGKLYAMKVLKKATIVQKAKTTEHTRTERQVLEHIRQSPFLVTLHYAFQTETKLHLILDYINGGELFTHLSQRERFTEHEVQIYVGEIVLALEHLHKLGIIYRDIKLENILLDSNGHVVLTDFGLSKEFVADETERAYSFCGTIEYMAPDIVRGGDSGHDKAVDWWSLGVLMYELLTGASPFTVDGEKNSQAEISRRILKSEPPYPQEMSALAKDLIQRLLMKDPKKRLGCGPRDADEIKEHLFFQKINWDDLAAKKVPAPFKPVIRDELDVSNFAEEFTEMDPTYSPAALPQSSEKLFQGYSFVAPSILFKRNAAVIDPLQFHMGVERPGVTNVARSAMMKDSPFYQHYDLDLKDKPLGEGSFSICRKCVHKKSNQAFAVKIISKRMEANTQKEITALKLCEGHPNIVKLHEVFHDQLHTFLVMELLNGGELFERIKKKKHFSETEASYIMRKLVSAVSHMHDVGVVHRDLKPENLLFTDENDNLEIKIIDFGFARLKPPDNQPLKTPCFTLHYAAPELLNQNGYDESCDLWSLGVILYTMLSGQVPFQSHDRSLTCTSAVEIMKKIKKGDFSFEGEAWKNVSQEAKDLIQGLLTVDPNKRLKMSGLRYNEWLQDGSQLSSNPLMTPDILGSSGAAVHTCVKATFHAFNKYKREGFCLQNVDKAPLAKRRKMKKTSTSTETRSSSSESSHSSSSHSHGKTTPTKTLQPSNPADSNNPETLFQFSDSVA
Chain of MAPKAP-K1b (A0A5F9C4L9 1-740): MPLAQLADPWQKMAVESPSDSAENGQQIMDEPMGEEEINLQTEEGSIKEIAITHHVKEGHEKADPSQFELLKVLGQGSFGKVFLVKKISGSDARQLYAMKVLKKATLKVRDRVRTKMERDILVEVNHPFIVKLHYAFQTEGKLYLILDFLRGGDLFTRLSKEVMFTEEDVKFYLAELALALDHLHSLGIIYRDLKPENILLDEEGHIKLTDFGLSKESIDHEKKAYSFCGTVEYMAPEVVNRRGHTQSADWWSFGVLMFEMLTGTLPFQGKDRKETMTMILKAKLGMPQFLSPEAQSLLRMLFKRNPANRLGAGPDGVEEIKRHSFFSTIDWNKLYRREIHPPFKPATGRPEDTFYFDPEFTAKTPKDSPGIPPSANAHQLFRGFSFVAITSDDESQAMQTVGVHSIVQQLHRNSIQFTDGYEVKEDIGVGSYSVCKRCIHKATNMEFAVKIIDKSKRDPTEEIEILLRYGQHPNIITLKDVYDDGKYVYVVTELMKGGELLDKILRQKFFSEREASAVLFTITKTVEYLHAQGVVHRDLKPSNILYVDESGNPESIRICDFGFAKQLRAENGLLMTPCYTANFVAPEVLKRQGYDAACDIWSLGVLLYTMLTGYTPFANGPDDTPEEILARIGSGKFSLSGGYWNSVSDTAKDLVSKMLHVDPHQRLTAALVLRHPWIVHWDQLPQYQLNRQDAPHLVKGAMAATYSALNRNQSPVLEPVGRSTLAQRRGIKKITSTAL
Chain of PRK2 (Q16513 whole entry): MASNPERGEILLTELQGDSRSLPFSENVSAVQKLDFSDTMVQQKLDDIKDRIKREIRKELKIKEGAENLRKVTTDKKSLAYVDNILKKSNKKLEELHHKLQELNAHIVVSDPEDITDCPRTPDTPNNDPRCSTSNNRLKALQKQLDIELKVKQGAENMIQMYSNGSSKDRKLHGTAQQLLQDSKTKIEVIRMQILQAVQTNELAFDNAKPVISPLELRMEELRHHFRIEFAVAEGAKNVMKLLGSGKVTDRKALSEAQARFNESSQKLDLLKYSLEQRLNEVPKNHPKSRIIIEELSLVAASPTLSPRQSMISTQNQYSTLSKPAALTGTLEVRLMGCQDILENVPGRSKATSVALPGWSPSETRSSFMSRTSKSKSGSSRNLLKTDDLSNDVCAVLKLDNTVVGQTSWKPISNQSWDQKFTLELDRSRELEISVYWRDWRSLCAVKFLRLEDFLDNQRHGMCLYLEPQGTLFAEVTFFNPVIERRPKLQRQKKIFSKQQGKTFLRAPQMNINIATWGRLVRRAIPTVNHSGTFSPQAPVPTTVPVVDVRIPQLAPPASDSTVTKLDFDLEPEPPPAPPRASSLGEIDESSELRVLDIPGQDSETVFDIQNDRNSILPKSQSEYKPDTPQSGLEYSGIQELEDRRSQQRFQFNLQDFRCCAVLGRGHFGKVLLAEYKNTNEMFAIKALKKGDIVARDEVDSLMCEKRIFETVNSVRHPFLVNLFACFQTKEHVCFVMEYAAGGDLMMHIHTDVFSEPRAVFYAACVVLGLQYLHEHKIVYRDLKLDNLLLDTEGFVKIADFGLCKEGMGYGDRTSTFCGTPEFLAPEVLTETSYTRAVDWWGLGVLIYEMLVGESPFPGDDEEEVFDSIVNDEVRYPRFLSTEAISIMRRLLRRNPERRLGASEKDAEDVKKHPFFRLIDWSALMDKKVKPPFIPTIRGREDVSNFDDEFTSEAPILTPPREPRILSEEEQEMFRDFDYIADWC

C=CC[C@@H](NC)[C@H]1CC[C@H](C(=O)Nc2ccncc2)CC1.Cl.Cl (relative stereo) [BA-1028, (R,S)-trans-4-[(N′-methyl)-but-3′-en-1′-amino]-N-(4″-pyridyl)cyclohexane Carboxamide Dihydrochloride]
activity towards GSKB (FIG. 10) [1]: can exert activity

C=CC[C@@H](NCc1ccccc1)[C@H]1CC[C@H](C(=O)Nc2ccncc2)CC1.Cl.Cl (relative stereo) [BA-1029, (R,S)-trans-4-[(N′-benzyl)-but-3′-en-1′-amino]-N-(4″-pyridyl)cyclohexane Carboxamide Dihydrochloride]
activity towards GSKB (FIG. 10) [1]: can exert activity

C[C@@H](N)[C@H]1CC[C@H](C(=O)Nc2ccncc2)CC1.Cl.Cl (relative stereo) [Y-27632, (R)-trans-4-(Ethan-1′-amino)-N-(4″-pyridyl)cyclohexane Carboxamide Dihydrochloride]
inhibition of PRK2 (PRK2): inhibits | inhibition of MSK1 (MSK1): inhibits | blood pressure ([2]; hypertensive rats): reduces blood pressure | blood pressure ([2]; normal rats): does not affect blood pressure | inhibition of PHK (PHK): inhibits | toxicity [3]: not toxic | inhibition of MAPKAP-K1b (MAPKAP-K1b): inhibits

C=CC[C@@H](N)[C@H]1CC[C@H](C(=O)Nc2ccncc2)CC1.Cl.Cl (stereo in doubt) [BA-1003]
neurite outgrowth on inhibitory MAG substrates (FIG. 4) [4]: can promote neurite outgrowth; also recorded: able to overcome growth inhibition by MAG | neurite outgrowth (FIG. 2) [5]: promote neurite outgrowth

C=CC[C@H](N)[C@H]1CC[C@H](C(=O)Nc2ccncc2)CC1.Cl.Cl (stereo in doubt) [BA-1017]
inhibition of ROCKII activity (FIG. 3) (ROCK II): inhibition of ROCKII activity | neurite outgrowth on MAG substrates at the lowest concentration tested ([4]; PC12 cells, 0.31 uM): better neurite outgrowth; also recorded: effective | neurite outgrowth on inhibitory MAG substrates (FIG. 4) [4]: can promote neurite outgrowth; also recorded: able to overcome growth inhibition by MAG | neurite outgrowth (FIG. 2) [5]: promote neurite outgrowth

Cl.Cl.O=C(Nc1ccncc1)[C@H]1CC[C@H](NNCC(c2ccccc2)c2ccccc2)CC1 [BA-1034, trans-4-{N′-[2′,2′-(Diphenyl)ethyl]hydrazino}-N-(4′″-pyridyl)cyclohexane Carboxamide Dihydrochloride]
activity towards GSKB (FIG. 10) [1]: can exert activity

Cl.Cl.O=C(Nc1ccncc1)[C@H]1CC[C@H](NNCc2ccc(OCc3ccccc3)cc2)CC1 [BA-1035, trans-4-{N′-[4′-(Benzyloxy)benzyl]hydrazino}-N-(4′″-pyridyl)cyclohexane Carboxamide Dihydrochloride]
activity towards GSKB (FIG. 10) [1]: can exert activity

Cl.Cl.O=C(Nc1ccncc1)[C@H]1CC[C@H](NNCC2CCCCC2)CC1 [BA-1036, trans-4-{N′-[(Cyclohexyl)methyl]hydrazino}-N-(4′″-pyridyl)cyclohexane Carboxamide Dihydrochloride]
activity towards GSKB (FIG. 10) [1]: can exert activity

Cl.Cl.O=C(Nc1ccncc1)[C@H]1CC[C@H](NNC/C=C/c2ccccc2)CC1 [BA-1038, 1,4-trans-2′,3′-trans-4-{N′-[3′-(Phenyl)prop-2′-enyl]hydrazino}-N-(4′″-pyridyl)cyclohexane Carboxamide Dihydrochloride]
activity towards GSKB (FIG. 10) [1]: can exert activity
